Data on one compound can be found in paper PMC4383003, “Transfer hydrogenation catalysis in cells as a new approach to anticancer drug design” (Nature Communications, 2015).

A short description of series [1]: pKa* of aqua adducts of the complexes. It counts as physicochemical. As to conditions: pKa value determined in deuterated solvent. From the text:
Table 1 pKa* values for aqua adducts of catalysts 1–4 (and 8 for comparison) and turnover frequencies for transfer hydrogenation of NAD^+ using formate. | column: pKa*

Series [2] has as its system A2780 human ovarian cancer cells. Description: In vitro growth inhibition assay (SRB), A2780. The series is classed as cell-based. To be noted: A2780, 24 h drug exposure, no formate. The procedure:
A2780 human ovarian carcinoma and MRC5 human fetal lung fibroblasts were obtained from the European Collection of Cell Cultures. Both cell lines were grown in Roswell Park Memorial Institute medium (RPMI-1640) supplemented with 10% of fetal calf serum, 1% of 2 mM glutamine and 1% penicillin/streptomycin. All cells were grown as adherent monolayers at 310 K in a 5% CO2-humidified atmosphere and passaged at ca. 70–80% confluency.
The antiproliferative activity of complexes 1–8 was determined in A2780 ovarian cancer cells and MRC5 fibroblasts. Briefly, 96-well plates were used to seed 5,000 cells per well. The plates were left to pre-incubate with drug-free medium at 310 K for 48 h before adding different concentrations of the compounds to be tested. A drug exposure period of 24 h was allowed. After this, supernatants were removed by suction and each well was washed with PBS. A further 72 h were allowed for the cells to recover in drug-free medium at 310 K. The sulforhodamine B (SRB) assay was used to determine cell viability. IC50 values, as the concentration that causes 50% cell death, were determined as duplicates of triplicates in two independent sets of experiments and their s.d. were calculated.

Series [3] deals with A2780 ovarian cancer cells. The series is described as follows: Ruthenium distribution in cancer cells (cell fractionation, ICP-MS). The series is classed as cell-based, human. How it is done:
Cell pellets were obtained as described above, and were fractionated using the Fraction PREP kit from BioVision according to the supplier’s instructions. Each sample was digested overnight in concentrated nitric acid (73%) and the amount of Ru taken up by the cells was determined by ICP–MS. These experiments were all carried out in triplicate and the s.d. were calculated.
Supplementary Table 9: Cellular distribution of complex 2 (as % Ru) in A2780 ovarian cancer cells when co-administered with different concentrations of sodium formate (0 and 2 mM). All the experiments were performed as duplicates of triplicates in independent experiments and the error bars were calculated as the standard deviation from the mean.
Formate Cytosol Membrane Cytoskeleton Nuclei

Another series has as its system calf thymus DNA. Description: Interaction with calf thymus DNA (ethanol precipitation, ICP-MS of Ru). The series is classed as binding. The procedure: Interaction with calf thymus DNA
Complex 2 was chosen as representative of the series. A stock solution of complex 2 (0.7 mM in 5 % acetonitrile/water) was prepared and aliquots of 66 μL were added to a solution of CT-DNA (final ratio 1:3 complex: base pairs-DNA) in water, 2 mM cacodylate buffer and 2 mM NaCl. The reaction mixture was incubated at 310 K, and aliquots of 300 μL were taken at different intervals during a period of 27 h. The DNA was then precipitated by addition of ethanol (700 μL, final concentration 70% v/v). Ru complexes which are strongly bound to CT-DNA will precipitate together with the DNA upon addition of ethanol, and, therefore the ruthenium concentration in the supernatant should decrease. However, no changes in the Ru concentration were detected by ICP-MS showing that the interaction between the complex 2 and DNA is weak (t = 0 h / 64.2 ± 0.7 µM, t = 24 h/ 65.1 ± 0 .3 µM free Ru). In contrast complex 8

Another series has as its system CT-DNA. Description: Circular dichroism of CT-DNA. It counts as binding, calf. As to conditions: different concentrations of complex 2. How it is done:
Supplementary Figure 4: Circular dichroism spectra of CT-DNA (1 mM) in red and CT-DNA (1 mM)/complex 2 (mol ratio 3:1) in black. Spectra were recorded under the same conditions, using (A) cacodylate buffer (2 mM, pH 7.4) and NaCl (20 mM) at 298 K, (B) PBS buffer (2 mM, pH 7.4) and NaCl (20 mM).
(1 picture or pasted object on this page, not shown here) […]
the nucleobases.11 Destabilization of DNA can result in a decrease of the melting […]
In the presence of complex 8, the melting temperature of CT-DNA increased In agreement with the literature, 12 by 14 K, in 2 mM NaCl, 2 mM cacodylate buffer.
This increase is due to Ru binding to DNA as well as intercalation. 12 However, upon increasing the chloride concentration by ca. 10x (20 mM NaCl) the melting temperature of CT-DNA in the presence of complex 8, increased only by 7 K. This effect has previously been reported and it is attributed to the partial inhibition of hydrolysis, and, therefore, inhibition of coordination to DNA. 12, 13
Experiments performed in the presence of complex 2, in 2 mM cacodylate buffer and […]
NaCl, no decrease of the melting temperature was observed. These experiments […]
Furthermore, strong binding to DNA can induce chirality in the metal complex, generating a CD signal. 14 CD spectra of CT-DNA in the presence of different concentrations of complex 2 were recorded (Supplementary Figure 4). […]

Series [4] deals with A2780 cells. Description: Induction of necrosis (7-ADD flow cytometry). It counts as cell-based, human. To be noted: A2780, complex 2 in presence and absence of 2 mM sodium formate, 24 h. The procedure:
Flow cytometry analysis of necrosis in A2780 cells caused by exposure to complex 2 and sodium formate was carried out using a Apotosis/Necrosis detection kit (Abcam) according to the manufacturer’s instructions. […] Cells were harvested using trypsin and stained using the membrane-impermeable nuclear dye 7-ADD (Ex/Em 546/647 nm). After staining in the dark, cell pellets were analysed in a Becton Dickinson FACScan Flow Cytometer. For positive-necrosis controls, A2780 cells were exposed to methanol.

Series [5] deals with A2780 cells. Description: Cellular membrane integrity (CytoPainter flow cytometry). It counts as cell-based, human. To be noted: A2780, complex 2 alone or with 2 mM sodium formate, 24 h. The procedure: Flow cytometry analysis of cellular membrane integrity of A2780 cells caused by exposure to complex 2 and sodium formate were carried out using the CytoPainter assay (Abcam) according to the manufacturer’s instructions. […] Cells were harvested using trypsin and stained in the dark using CytoPainter Red (Ex/Em 583/603 nm), which reacts with cell surface amines in compromised membranes. After staining, cell pellets were analysed in a Becton Dickinson FACScan Flow Cytometer.
(In general: A flow cytometer gives signals particle by particle.)

The mark [6] stands for this setting: A2780, complex 2 4.5 μM, presence and absence of formate (2 mM).

A word on the IC50: it is the concentration at which inhibition is half-maximal. Low readings indicate greater potency in that assay, high ones weaker potency in that assay.

As for `Cc1ccc(C(C)C)cc1.Cc1ccc(S(=O)(=O)[N-]CCN)cc1.[Cl-].[Ru+2]` [Complex 2, [(p-cym)Ru(TsEn)Cl]], in series [1], the “pKa*” value is 9.78±0.06. The compound further registered an IC50 in series [2] of 13.6 ± 0.6 µM. Moreover, in series [3] (A2780, complex 2 4.5 μM), the “Ru in cytoskeletal fraction” value is “little Ru”. Also, in series [3] (setting [6]), the “Ru in cytosolic fraction” value came out at 51%; the “Ru in membrane and organelle fraction” value is listed as 38%; the “Ru in nuclear fraction” value was 9%. In series [3] (A2780, formate 0 mM), the “%Ru Cytoskeleton” value was found to be 1.9 ± 0.5%, the “%Ru Cytosol” value was 50.5 ± 2.4%, the “%Ru Membrane” value was 41.6 ± 1.4% and the “%Ru Nuclei” value came to 6.0 ± 2.8%. For the same compound, in series [3] (A2780, formate 2 mM), the “%Ru Cytoskeleton” value was determined as 1.0 ± 0.8%, the “%Ru Cytosol” value came to 52.0 ± 3.0%, the “%Ru Membrane” value was determined as 35.7 ± 7.2% and the “%Ru Nuclei” value worked out at 11.3 ± 4.5%. Moreover, in the series with calf thymus DNA (CT-DNA, 1:3 complex:base pairs, 310 K, t = 0 h), the “free Ru in supernatant” value is 64.2 ± 0.7 µM. Moreover, the “binding to calf thymus DNA” value with calf thymus DNA (ICP-MS of Ru, up to 27 h at 310 K, 1:3 complex:DNA base pairs, 2 mM cacodylate pH 7.4, 2 mM NaCl) is “weak and no binding”. The “changes in CD spectra of CT-DNA” value in the series on CT-DNA was “No changes”. The induction of necrosis result in the series with A2780 cells [4] is “no cellular necrosis”. For the same compound, in the series with A2780 cells [5], the “cellular membrane integrity, FL2 fluorescence of CytoPainter red” value is “low fluorescence”.
